This test has as its target T1, human Mnk2a (Homo sapiens, UniProt Q9HBH9).
T1 construct: made in house; host or cells: E. coli BL21 (vector pGEX-4T1)
In words: Mnk2a in vitro kinase assay (indirect fluorescence polarization). The test is classed as biochemical. The conditions noted are these: GST-Mnk2a pre-activated with ERK2, 20 μM ATP, 30 μM substrate peptide; read-out: MNK2 IC50. The method in brief:
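Indirect competitive fluorescence polarization: kinase-generated phospho-product displaces a fluorophore-labelled phospho-peptide from a phospho-specific antibody. Enzyme is N-terminal GST-Mnk2a from E. coli, activated with pre-activated ERK2 and 50 μM ATP; substrate is an amidated 12-mer peptide around eIF4E Ser209.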
In general terms: Fluorescence polarisation rises when a labelled molecule tumbles more slowly, as on binding a larger partner.

As a reminder, the IC50 is the concentration at which inhibition is half-maximal.

T1 sequence (Q9HBH9 whole entry): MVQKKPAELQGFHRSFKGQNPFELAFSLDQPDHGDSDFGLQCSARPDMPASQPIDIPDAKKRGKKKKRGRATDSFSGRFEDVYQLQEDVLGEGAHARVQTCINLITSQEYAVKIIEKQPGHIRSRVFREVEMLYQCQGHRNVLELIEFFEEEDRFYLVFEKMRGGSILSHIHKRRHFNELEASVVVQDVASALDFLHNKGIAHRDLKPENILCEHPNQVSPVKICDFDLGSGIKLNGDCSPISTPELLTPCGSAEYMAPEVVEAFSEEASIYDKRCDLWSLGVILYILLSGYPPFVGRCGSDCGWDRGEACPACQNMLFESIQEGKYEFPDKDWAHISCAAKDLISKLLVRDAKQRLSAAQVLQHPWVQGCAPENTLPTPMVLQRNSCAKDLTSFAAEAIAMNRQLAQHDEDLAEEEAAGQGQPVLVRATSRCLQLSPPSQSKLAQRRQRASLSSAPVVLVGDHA

In the case of `Cc1c(C(=O)NCCC2CCCN2C)sc2ncnc(Nc3ccc(F)cc3OC3CCCNC3)c12` (centres unmarked) [Example 53], the IC50 was found to be 0.046 µM. Next, `Cc1c(C(=O)N[C@H]2C[C@@H]2N)sc2ncnc(Nc3ccc(F)cc3OC3CCOCC3)c12` [Example 144]: 0.047 µM; `Cc1c(C(=O)N[C@H]2CCCC[C@@H]2O)sc2ncnc(Nc3ccc(F)cc3OC3CCOCC3)c12` [Example 243]: 0.049 µM. Take `Cc1c(C(=O)NCC2CN(C)CCO2)sc2ncnc(Nc3ccc(F)cc3OC3CCCNC3)c12` (centres unmarked) [Example 55]: the IC50 was determined as 0.051 µM. As for `Cc1c(C(=O)NCCCN(C)C)sc2ncnc(Nc3ccc(F)cc3O[C@H]3CCOC3)c12` [Example 108, 4-{4-Fluoro-2-[(S)-(tetrahydro-furan-3-yl)oxy]-phenylamino}-5-methyl-thieno[2,3-d]pyrimidine-6-carboxylic acid (3-dimethylamino-propyl)-amide], the IC50 came to 0.026 µM. In the case of `Cc1c(C(=O)N[C@H]2CC[C@H](O)CC2)sc2ncnc(Nc3ccc(F)cc3OC3CCOCC3)c12` [Example 173] it was 0.039 µM. For the compound `Cc1c(C(=O)NCc2ccccc2C#N)sc2ncnc(Nc3ccc(F)cc3OC3CCCNC3)c12` (centres unmarked) [Example 41], the IC50 turned out to be 0.031 µM.

For `Cc1c(C(N)=O)sc2ncnc(Nc3ccc(F)cc3O[C@H]3CCCN(CC(F)(F)F)C3)c12` [Example 5], the IC50 stood at 0.11 µM. As to `Cc1c(C(=O)NC2CCN(C)CC2)sc2ncnc(Nc3ccc(F)cc3OC3CCN(S(C)(=O)=O)C3)c12` (centres unmarked) [Example 91], the IC50 was 0.051 µM. In the case of `Cc1c(C(=O)NCc2cc(F)ccc2F)sc2ncnc(Nc3ccc(F)cc3OC3CCCNC3)c12` (centres unmarked) [Example 57] it was 0.043 µM; in that of `Cc1c(C(=O)NCCS(C)(=O)=O)sc2ncnc(Nc3ccc(F)cc3OC3CCOCC3)c12` [Example 180], 0.033 µM. Next, `Cc1c(C(=O)NC(C)CO)sc2ncnc(Nc3ccc(F)cc3OC3CCOCC3)c12` (centres unmarked) [Example 156]: 0.05 µM; `Cc1c(C(N)=O)sc2ncnc(Nc3ccc(F)cc3O[C@H]3CCCN(CCO)C3)c12` [Example 6, (S)-4-(4-fluoro-2-(1-(2-hydroxyethyl)piperidin-3-yloxy)phenylamino)-5-methylthieno[2,3-d]pyrimidine-6-carboxamide]: 0.12 µM; `Cc1c(C(=O)NCCCN2CCN(C)CC2)sc2ncnc(Nc3ccc(F)cc3OC3CCOCC3)c12` [Example 120]: 0.022 µM. For the compound `Cc1c(C(N)=O)sc2ncnc(Nc3ccc(F)cc3O[C@@H]3CCCN(CCC(F)(F)F)C3)c12` [Example 79], the IC50 is 0.012 µM.

Take `Cc1c(C(=O)NCCO)sc2ncnc(Nc3ccc(F)cc3O[C@@H]3CCCN(S(C)(=O)=O)C3)c12` [Example 86]: the IC50 came to 0.006 µM. Next, `CSCCCNC(=O)c1sc2ncnc(Nc3cccnc3OC3CCOCC3)c2c1C` [Example 279]: 0.077 µM. Next, `Cc1c(C(=O)NCCCN2CCCC2)sc2ncnc(Nc3ccc(F)cc3O[C@@H]3CCOC3)c12` [Example 106]: 0.025 µM; `Cc1c(C(N)=O)sc2ncnc(Nc3ccc(F)cc3O[C@@H]3CCCN(CC(F)F)C3)c12` [Example 74, 4-{2-[(R)-1-(2,2-Difluoro-ethyl)-piperidin-3-yloxy]-4-fluoro-phenylamino}-5-methyl-thieno[2,3-d]pyrimidine-6-carboxylic acid amide]: 0.003 µM. In the case of `COCCNC(=O)c1sc2ncnc(Nc3ccc(F)cc3O[C@H]3CCCNC3)c2c1C` [Example 13] it was 0.059 µM; in that of `Cc1c(C(=O)NCC2CCOCC2)sc2ncnc(Nc3ccc(F)cc3OC3CCCNC3)c12` (centres unmarked) [Example 32], 0.055 µM.

Consider `Cc1c(C(=O)NCCC[S+](C)[O-])sc2ncnc(Nc3cccnc3OC3CCOCC3)c12` (centres unmarked) [Compound 282, 5-Methyl-4-[2-(tetrahydro-pyran-4-yloxy)-pyridin-3-ylamino]-thieno[2,3-d]pyrimidine-6-carboxylic acid (3-methanesulfinyl-propyl)-amide], for which the IC50 amounted to 0.053 µM. Next, `Cc1c(C(=O)NCC(N)=O)sc2ncnc(Nc3ccc(F)cc3OC3CCOCC3)c12` [Example 128]: 0.041 µM; `COCC(C)NC(=O)c1sc2ncnc(Nc3ccc(F)cc3OC3CCOCC3)c2c1C` (centres unmarked) [Example 163]: 0.06 µM.

Regarding `Cc1c(C(N)=O)sc2ncnc(Nc3ccc(F)cc3O[C@@H]3CCCN(C)C3)c12` [Example 76, 4-[4-Fluoro-2-((R)-1-methyl-piperidin-3-yloxy)-phenylamino]-5-methyl-thieno[2,3-d]pyrimidine-6-carboxylic acid amide], the IC50 is 0.043 µM. `Cc1c(C(=O)NC2CCN(C)CC2)sc2ncnc(Nc3ccc(F)cc3O[C@@H]3CCCOC3)c12` [Example 259, 4-{4-Fluoro-2-[(R)-(tetrahydro-pyran-3-yl)oxy]-phenylamino}-5-methyl-thieno[2,3-d]pyrimidine-6-carboxylic acid (1-methyl-piperidin-4-yl)-amide]: the IC50 stood at 0.038 µM. Next, `Cc1c(C(N)=O)sc2ncnc(Nc3ccc(F)cc3O[C@@H]3CCCN(CCC#N)C3)c12` [Example 82, 4-{2-[(R)-1-(2-Cyano-ethyl)-piperidin-3-yloxy]-4-fluoro-phenylamino}-5-methyl-thieno[2,3-d]pyrimidine-6-carboxylic acid amide]: 0.008 µM. As for `Cc1c(C(=O)NC2CC2)sc2ncnc(Nc3ccc(F)cc3O[C@@H]3CCOC3)c12` [Example 107], the IC50 was determined as 0.026 µM. Next, `Cc1c(C(=O)NC(C)C)sc2ncnc(Nc3ccc(F)cc3OC3CCOCC3)c12` [Example 135]: 0.043 µM; `Cc1c(C(=O)NCCCC2CCOC2)sc2ncnc(Nc3ccc(F)cc3OC3CCCNC3)c12` (centres unmarked) [Example 39]: 0.058 µM.

Regarding `Cc1c(C(=O)NC2CCN(C)CC2)sc2ncnc(Nc3cccnc3O[C@@H]3CCCOC3)c12` [Example 263], the IC50 came out at 0.115 µM. Next, `Cc1c(C(=O)NO)sc2ncnc(Nc3ccc(F)cc3OC3CCOCC3)c12` [Example 244]: 0.019 µM; `Cc1c(C(=O)NCC#N)sc2ncnc(Nc3cccnc3O[C@@H]3CCCOC3)c12` [Example 266]: 0.025 µM. Next, `Cc1c(C(=O)NCC#CCN)sc2ncnc(Nc3ccc(F)cc3OC3CCOCC3)c12` [Example 134]: 0.016 µM; `Cc1c(C(=O)NCCN2CCCCC2)sc2ncnc(Nc3ccc(F)cc3OC3CCOCC3)c12` [Example 222]: 0.051 µM; `Cc1c(C(=O)NCC[S+](C)[O-])sc2ncnc(Nc3ccc(F)cc3OC3CCOCC3)c12` (centres unmarked) [Example 238]: 0.032 µM. In the case of `COc1ccc(CNC(=O)c2sc3ncnc(Nc4ccc(F)cc4OC4CCCNC4)c3c2C)cc1` (centres unmarked) [Example 45] it was 0.036 µM.

For `COCC(=O)N1CCC(Oc2cc(F)ccc2Nc2ncnc3sc(C(N)=O)c(C)c23)C1` (centres unmarked) [Example 94, 4-{4-Fluoro-2-[1-(2-methoxy-acetyl)-pyrrolidin-3-yloxy]-phenylamino}-5-methyl-thieno[2,3-d]pyrimidine-6-carboxylic acid amide], the IC50 was 0.3 µM.

Turning to `Cc1c(C(=O)NCCS(=O)(=O)N(C)C)sc2ncnc(Nc3ccc(F)cc3OC3CCCNC3)c12` (centres unmarked) [Example 47], the IC50 turned out to be 0.051 µM. Next, `Cc1c(C(=O)NCCO)sc2ncnc(Nc3ccc(F)cc3OC3CCOCC3)c12` [Example 211]: 0.029 µM.

Consider `Cc1c(C(=O)NCC2CCCO2)sc2ncnc(Nc3ccc(F)cc3OC3CCOCC3)c12` (centres unmarked) [Example 217], for which the IC50 was determined as 0.049 µM. Next, `Cc1c(C(=O)NCC(C)(C)Cl)sc2ncnc(Nc3ccc(F)cc3OC3CCCNC3)c12` (centres unmarked) [Example 48]: 0.075 µM; `Cc1c(C(=O)NCC(c2cccnc2)N(C)C)sc2ncnc(Nc3ccc(F)cc3OC3CCCNC3)c12` (centres unmarked) [Example 62]: 0.11 µM; `Cc1c(C(=O)NCCCN(C)CCN(C)C)sc2ncnc(Nc3ccc(F)cc3OC3CCOCC3)c12` [Example 126]: 0.026 µM.

As for `Cc1c(C(=O)NCCOCCO)sc2ncnc(Nc3ccc(F)cc3OC3CCCNC3)c12` (centres unmarked) [Example 50], the IC50 came out at 0.072 µM.

Take `Cc1c(C(=O)NCC(F)(F)F)sc2ncnc(Nc3ccc(F)cc3OC3CCOCC3)c12` [Example 159]: the IC50 stood at 0.044 µM. In the case of `Cc1c(C(=O)NCCc2cnn(C)c2)sc2ncnc(Nc3ccc(F)cc3OC3CCOCC3)c12` [Example 171] it was 0.041 µM. Turning to `Cc1c(C(=O)NCc2cc[nH]n2)sc2ncnc(Nc3ccc(F)cc3OC3CCOCC3)c12` [Example 182], the IC50 came to 0.03 µM. Next, `Cc1c(C(=O)NCCS(N)(=O)=O)sc2ncnc(Nc3ccc(F)cc3OC3CCOCC3)c12` [Example 196]: 0.034 µM; `Cc1c(C(=O)NCCN2CCCC2=O)sc2ncnc(Nc3ccc(F)cc3OC3CCOCC3)c12` [Example 176]: 0.105 µM; `CONC(=O)c1sc2ncnc(Nc3ccc(F)cc3OC3CCOCC3)c2c1C` [Example 239]: 0.041 µM. Take `Cc1c(C(=O)NCC2CCCOC2)sc2ncnc(Nc3ccc(F)cc3OC3CCOCC3)c12` (centres unmarked) [Example 197]: the IC50 amounted to 0.028 µM.

Take `CCOCCCNC(=O)c1sc2ncnc(Nc3ccc(F)cc3OC3CCOCC3)c2c1C` [Example 218]: the IC50 was determined as 0.033 µM. Turning to `COC[C@H]1CCCN1CCCNC(=O)c1sc2ncnc(Nc3ccc(F)cc3OC3CCOCC3)c2c1C` [Example 121], the IC50 worked out at 0.033 µM. Next, `Cc1c(C(=O)NC2CCCN(C(=O)OC(C)(C)C)CC2)sc2ncnc(Nc3ccc(F)cc3O[C@H]3CCOC3)c12` (stereo partly drawn) [Example 272, 4-[(4-{4-Fluoro-2-[(S)-(tetrahydro-furan-3-yl)oxy]-phenylamino}-5-methyl-thieno[2,3-d]pyrimidine-6-carbonyl)-amino]-azepane-1-carboxylic acid tert-butyl ester]: 0.04 µM; `Cc1c(C(N)=O)sc2ncnc(Nc3cccnc3O[C@H]3CCCNC3)c12` [Example 69, 5-Methyl-4-[2-((S)-piperidin-3-yloxy)-pyridin-3-ylamino]thieno[2,3-d]pyrimidine-6-carboxylic acid amide]: 0.019 µM.

(Values after patent US8648068B2, “Heterocycloalkyl-containing thienopyrimidines for pharmaceutical compositions” (Boehringer Ingelheim International GmbH, priority 2010, dated 2014).)
